How the values were obtained:
[1] = species: Oryctolagus cuniculus; assay: Antiarrhythmic activity expressed as change in effective refractory period (DeltaERP) induced in rabbit ventricle by the Enantiomeric Disopyramide Bitartrates at a concentration of 3.0x10E-6M; assay type: functional, Heart
[2] = species: Oryctolagus cuniculus; assay: Antiarrhythmic activity expressed as change in effective refractory period (DeltaERP) induced in rabbit ventricle by the Enantiomeric Disopyramide Bitartrates at a concentration of 1.5x10E-5M.; assay type: functional, Heart

Structure (SMILES)	Delta ERP [1]	Delta ERP [2]
CC(C)N(CC[C@@](C(N)=O)(c1ccccc1)c1ccccn1)C(C)C [DISOPIRAMIDE]	25.8 ms	50.5 ms
CC(C)N(CC[C@](C(N)=O)(c1ccccc1)c1ccccn1)C(C)C [(S)-DISOPYRAMIDE]	21.8 ms	41.2 ms
